Test results from ChEMBL document CHEMBL5046305, “A Chemical Strategy toward Novel Brain-Penetrant EZH2 Inhibitors” (ACS Med Chem Lett, 2022).

How the values were obtained:
[1] = Metabolic stability in human liver microsomes at 1 uM in presence of NADPH generating system by LC/MS/MS analysis; assay type: ADME, Microsome; conditions: read-out: Stability
[2] = tested on: KARPAS-422; experiment: Antiproliferative activity against human KARPAS-422 cells assessed as cell growth inhibition incubated for 72 hrs followed by compound dilution in growth medium and measured after 96 hrs by Alamar blue assay; assay type: functional, cell-based
[3] = Apparent permeability across apical to basolateral side in MDCK-MDR1 cells at 1 to 10 uM measured after 1 hrs by LC/MS/MS analysis; assay type: ADME, cell-based, Canis lupus familiaris; conditions: dog, dose 1-10 µM
[4] = Metabolic stability in mouse liver microsomes at 1 uM in presence of NADPH generating system by LC/MS/MS analysis; assay type: ADME, Microsome; conditions: read-out: Stability
[5] = target: T1, Histone-lysine N-methyltransferase EZH2 (Homo sapiens, UniProt Q15910); experiment: Inhibition of EZH2 in HEK293T cells assessed as H3K27me3 levels incubated for 48 hrs by flow cytometry; assay type: cell-based
[6] = target: T1, Histone-lysine N-methyltransferase EZH2; experiment: Inhibition of EZH2 (unknown origin) using 3H-SAM as substrate incubated for 1 hour by filter binding method
[7] = tested on: MDR1; experiment: Efflux ratio of apparent permeability across basolateral to apical side over apical to basolateral side in MDCK-MDR1 cells at 1 to 10 uM measured after 1 hrs by LC/MS/MS analysis; assay type: ADME, cell-based, Canis lupus familiaris; conditions: dog, dose 1-10 µM
[8] = Ratio of unbound drug concentration in brain to blood in Sprague-Dawley rat at 1 mg/kg, iv measured after 15 mins by LC/MS/MS analysis; assay type: ADME, organism-based; conditions: read-out: K(p,uu,brain)

T1 sequence (Q15910 whole entry): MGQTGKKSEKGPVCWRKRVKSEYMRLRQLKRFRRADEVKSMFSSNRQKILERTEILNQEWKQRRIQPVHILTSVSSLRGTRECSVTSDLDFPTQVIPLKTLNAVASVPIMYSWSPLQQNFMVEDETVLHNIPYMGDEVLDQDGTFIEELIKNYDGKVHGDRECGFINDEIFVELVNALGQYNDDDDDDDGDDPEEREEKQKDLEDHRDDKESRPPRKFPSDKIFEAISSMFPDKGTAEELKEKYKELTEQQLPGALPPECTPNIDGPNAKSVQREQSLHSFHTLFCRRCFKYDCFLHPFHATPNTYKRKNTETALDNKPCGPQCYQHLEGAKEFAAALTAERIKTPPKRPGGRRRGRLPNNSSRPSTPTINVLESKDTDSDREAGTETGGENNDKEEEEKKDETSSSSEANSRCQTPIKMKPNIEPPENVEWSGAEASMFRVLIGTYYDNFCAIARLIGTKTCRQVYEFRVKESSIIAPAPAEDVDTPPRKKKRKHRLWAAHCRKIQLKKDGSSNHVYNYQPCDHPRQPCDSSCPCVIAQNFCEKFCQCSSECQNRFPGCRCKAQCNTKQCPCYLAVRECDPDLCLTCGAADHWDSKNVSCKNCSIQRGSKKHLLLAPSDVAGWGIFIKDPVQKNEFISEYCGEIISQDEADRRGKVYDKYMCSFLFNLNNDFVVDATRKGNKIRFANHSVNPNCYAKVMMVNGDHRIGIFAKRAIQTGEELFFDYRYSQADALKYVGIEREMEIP

Row | SMILES | microsomal CLint at 1 µM [1] | IC50 [2] | Papp A→B at 1 h, up to 10 µM [3] | microsomal CLint at 1 µM [4] | IC50 [5] | IC50 [6] | efflux ratio at 1 h, up to 10 µM [7] | Kp uu at 0.25 h [8]
1 | COc1cc(C)[nH]c(=O)c1CN1CCN(C)c2c(Cl)cc(-c3ccc(Cl)cc3F)c(Cl)c2C1=O | 97 µL/min/mg | – | – | 297 µL/min/mg | – | 0.0721 µM | – | –
2 | COc1cc(C)[nH]c(=O)c1CN1CCN(C)c2c(Cl)cc(OC(C)C)c(Cl)c2C1=O | 29 µL/min/mg | – | – | > 768 µL/min/mg | – | 0.0334 µM | – | –
3 | CCN(c1cc(Cl)c2c(c1Cl)C(=O)N(Cc1c(OC)cc(C)[nH]c1=O)CCN2C)C1CCOCC1 | 181 µL/min/mg | – | – | > 768 µL/min/mg | – | 0.0019 µM | – | –
4 | COc1cc(C)[nH]c(=O)c1CN1CCN(C)c2c(Cl)cc(-c3ccc(CN4CCOCC4)cc3)c(Cl)c2C1=O | 41 µL/min/mg | – | – | 41 µL/min/mg | – | 0.22 µM | – | –
5 | CSc1cc(C)n(C)c(=O)c1CN1CCN(C)c2c(Cl)cc(-c3c(C)noc3C)c(Cl)c2C1=O | – | 10.4 µM | 0.2 ×10⁻⁶ cm/s | – | – | 0.0114 µM | 110 | –
6 | COc1cc(C)[nH]c(=O)c1CN1CCN(C)c2c(Cl)cc(C(O)C3CCOCC3)c(Cl)c2C1=O (stereo not given) | 34 µL/min/mg | – | – | 91 µL/min/mg | – | 0.0094 µM | – | –
7 | COc1cc(C)[nH]c(=O)c1CN1CCN(C)c2c(Cl)cc(-c3ccc(N4CCOCC4)cc3)c(Cl)c2C1=O | 7 µL/min/mg | – | – | 8 µL/min/mg | – | 0.0648 µM | – | –
8 | COc1cc(C)[nH]c(=O)c1CN1CCN(C)c2c(Cl)cc(C(C)C3CCOCC3)c(Cl)c2C1=O (stereo not given) | 206 µL/min/mg | – | – | 562 µL/min/mg | – | 0.002 µM | – | –
9 | Cc1noc(C)c1-c1cc(Cl)c2c(c1Cl)C(=O)N(Cc1c(C(F)(F)F)cc(C)n(C)c1=O)CC2 | 287 µL/min/mg | – | 4.9 ×10⁻⁶ cm/s | 592 µL/min/mg | – | > 1 µM | 2.4 | –

The remaining lines, values ahead:

Row | microsomal CLint at 1 µM [1] | IC50 [2] | Papp A→B at 1 h, up to 10 µM [3] | microsomal CLint at 1 µM [4] | IC50 [5] | IC50 [6] | efflux ratio at 1 h, up to 10 µM [7] | Kp uu at 0.25 h [8] | SMILES
10 | 210 µL/min/mg | 0.122 µM | 3.7 ×10⁻⁶ cm/s | 253 µL/min/mg | 0.016 µM | 0.001 µM | 4.8 | < 0.003 | Cc1cc(C)c(CN2CCc3c(Cl)cc(-c4c(C)noc4C)c(Cl)c3C2=O)c(=O)[nH]1
11 | – | – | < 0.1 ×10⁻⁶ cm/s | – | – | 0.0018 µM | > 170 | – | CCc1cc(C)[nH]c(=O)c1CN1CCN(C)c2c(Cl)cc(-c3c(C)noc3C)c(Cl)c2C1=O
12 | – | – | – | – | – | 0.541 µM | – | – | COc1cc(C)n(C)c(=O)c1CN1CCN(C)c2c(Cl)cc(-c3c(C)noc3C)c(Cl)c2C1=O
13 | 449 µL/min/mg | 4.68 µM | 10.5 ×10⁻⁶ cm/s | > 768 µL/min/mg | – | – | – | 0.29 | Cc1cc(C)n(C)c(=O)c1CN1CCc2c(Cl)cc(-c3c(C)noc3C)c(Cl)c2C1=O
14 | 9 µL/min/mg | – | < 0.1 ×10⁻⁶ cm/s | – | – | 0.0029 µM | – | – | COc1cc(C)[nH]c(=O)c1CN1CCN(C)c2ccc(-c3c(C)noc3C)c(Cl)c2C1=O
15 | 490 µL/min/mg | – | 5.2 ×10⁻⁶ cm/s | > 768 µL/min/mg | – | 0.302 µM | 1.5 | – | Cc1noc(C)c1-c1cc(Cl)c2c(c1Cl)C(=O)N(Cc1c(C3CC3)cc(C)n(C)c1=O)CC2
16 | 117 µL/min/mg | 2.95 µM | 1 ×10⁻⁶ cm/s | 656 µL/min/mg | – | 0.0116 µM | 23 | – | COc1cc(C)n(C)c(=O)c1CN1CCc2c(Cl)cc(-c3c(C)noc3C)c(Cl)c2C1=O
17 | – | – | – | – | – | 0.0334 µM | – | – | CCN1CCN(Cc2c(OC)cc(C)[nH]c2=O)C(=O)c2c(Cl)c(-c3c(C)noc3C)cc(Cl)c21
18 | 80 µL/min/mg | 0.245 µM | < 0.1 ×10⁻⁶ cm/s | 112 µL/min/mg | 0.208 µM | 0.00087 µM | > 49 | – | COc1cc(C)[nH]c(=O)c1CN1CCN(C)c2c(Cl)cc(-c3c(C)noc3C)c(Cl)c2C1=O
19 | – | 0.125 µM | < 0.1 ×10⁻⁶ cm/s | – | – | 0.0009 µM | > 99 | – | CSc1cc(C)[nH]c(=O)c1CN1CCN(C)c2c(Cl)cc(-c3c(C)noc3C)c(Cl)c2C1=O
20 | 79 µL/min/mg | 0.065 µM | < 0.1 ×10⁻⁶ cm/s | 123 µL/min/mg | 0.017 µM | 0.00035 µM | > 51 | – | COc1cc(C)[nH]c(=O)c1CN1CCNc2c(Cl)cc(-c3c(C)noc3C)c(Cl)c2C1=O
21 | 235 µL/min/mg | 0.632 µM | 0.3 ×10⁻⁶ cm/s | 796 µL/min/mg | – | 0.0013 µM | 110 | – | CSc1cc(C)n(C)c(=O)c1CN1CCc2c(Cl)cc(-c3c(C)noc3C)c(Cl)c2C1=O
22 | – | 1.32 µM | 0.2 ×10⁻⁶ cm/s | – | – | 0.0021 µM | 220 | – | CSc1cc(C)n(C)c(=O)c1CN1CCNc2c(Cl)cc(-c3c(C)noc3C)c(Cl)c2C1=O
23 | > 768 µL/min/mg | – | 11 ×10⁻⁶ cm/s | > 768 µL/min/mg | – | 0.082 µM | 0.72 | – | CCc1cc(C)n(C)c(=O)c1CN1CCc2c(Cl)cc(-c3c(C)noc3C)c(Cl)c2C1=O
